One molecule from patent publication US20080009025A1, “PROTEIN KINASE REGULATION” (priority 1999, published 2008) can be followed below.

For one experiment, the target named is T1, GST-PDK1 (Homo sapiens, UniProt O15530).
T1 construct: Full length PDK1 (residues 1-556); made in house; host or cells: 293 cells
T1 sequence (O15530 1-556): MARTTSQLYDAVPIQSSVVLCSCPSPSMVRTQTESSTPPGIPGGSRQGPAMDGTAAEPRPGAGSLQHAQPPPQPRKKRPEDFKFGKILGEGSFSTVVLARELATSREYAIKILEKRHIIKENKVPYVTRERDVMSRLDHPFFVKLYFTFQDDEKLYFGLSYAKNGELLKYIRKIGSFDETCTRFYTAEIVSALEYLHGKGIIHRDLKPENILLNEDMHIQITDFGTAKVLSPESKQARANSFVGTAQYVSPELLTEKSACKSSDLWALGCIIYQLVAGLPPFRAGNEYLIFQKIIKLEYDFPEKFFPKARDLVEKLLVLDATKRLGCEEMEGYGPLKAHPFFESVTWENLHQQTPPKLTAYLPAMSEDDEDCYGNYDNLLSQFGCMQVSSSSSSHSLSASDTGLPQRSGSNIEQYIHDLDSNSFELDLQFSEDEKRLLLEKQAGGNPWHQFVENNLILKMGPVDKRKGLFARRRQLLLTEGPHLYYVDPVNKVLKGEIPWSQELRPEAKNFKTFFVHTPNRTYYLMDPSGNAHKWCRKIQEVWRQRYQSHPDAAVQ
Nature of the experiment: Thermal denaturation of PDK1 (TM50). The experiment is classed as biochemical. As to conditions: wild type GST-PDK1; heated 2 min. An excerpt:
A further aspect of the invention provides the use of an interacting polypeptide as defined above, for example comprising the amino acid sequence Phe/Tyr-Xaa-Xaa-Phe/Tyr or an interacting compound of the invention in a method of stabilising a protein kinase having a hydrophobic pocket in the position equivalent to the hydrophobic pocket of Protein Kinase A (PKA) that is defined by residues including Lys76, Leu116, Val80 and/or Lys111 of full-length mouse PKA, wherein the protein kinase is exposed to the compound or polypeptide. Stabilisation may be measured by measuring the TM50 value. The TM50 value is the temperature at which heating for two minutes produces a 50% reduction in protein kinase activity (measured using any appropriate substrate) compared with the protein kinase activity before such heating, as described in Example 2. An increase in the TM50 value, for example by at least about 1, 2, 3, 4, 5, 6, 7, 8, 9, 10 or 15° C. indicates stabilisation.
FIG. 12. PDK1 is activated and stabilised through its interaction with PIFtide. (A) GST-PDK1 activity was measured in the presence of increasing concentrations of wild type (wt) PIFtide (closed circles) or a mutant D978A PIFtide (open circles) using the synthetic peptide substrate termed T308tide, as described in Material and Methods. The data was fitted to a hyperbola using the Kaleidagraph™ software. […]

For a further experiment, the target named is T2, PDK1 (Homo sapiens, UniProt O15530).
T2 construct: Full length PDK1 (residues 1-556); made in house; host or cells: 293 cells
T2 sequence (O15530 52-556): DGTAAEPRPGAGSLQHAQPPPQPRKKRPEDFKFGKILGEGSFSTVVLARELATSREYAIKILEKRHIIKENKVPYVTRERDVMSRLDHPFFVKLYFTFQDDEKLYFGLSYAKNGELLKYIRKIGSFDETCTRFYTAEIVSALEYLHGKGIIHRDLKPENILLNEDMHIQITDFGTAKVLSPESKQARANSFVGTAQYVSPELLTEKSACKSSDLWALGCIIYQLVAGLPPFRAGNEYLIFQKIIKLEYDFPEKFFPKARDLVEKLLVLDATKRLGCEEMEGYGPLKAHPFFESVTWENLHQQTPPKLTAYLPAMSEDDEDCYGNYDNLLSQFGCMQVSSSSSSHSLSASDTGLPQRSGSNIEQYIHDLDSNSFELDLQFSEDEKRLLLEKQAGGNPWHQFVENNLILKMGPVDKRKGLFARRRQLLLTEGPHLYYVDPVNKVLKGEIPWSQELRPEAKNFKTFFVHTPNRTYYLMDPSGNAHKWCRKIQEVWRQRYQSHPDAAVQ
Nature of the experiment: Surface plasmon resonance binding of His-PDK1 to immobilised p70 S6K. As to conditions: 10 μM peptide. The method, then: FIG. 6. Quantitative analysis of the binding of PDK1 to p70 S6K. Surface Plasmon Resonance measurements were carried out on a BiaCore instrument as described in the Methods. His-PDK1 was injected at the indicated concentrations over (A) 2000 RUs of p70 S6K-T2 (closed squares), or 412Ep70 S6K-T2 (closed circles) which was immobolised by amine coupling to a CM5 Sensorchip. Experiments carried out in the presence of either 10 μM wild type PIF peptide (hexagons) or 10 μM D978A mutant PIF peptide (triangles) are indicated. The responses at steady state binding were recorded. All data are single determinations from a representative experiment that was repeated at least 3 times with similar results.
Surface plasmon resonance measurements of PDK1 binding to p70 S6 kinase. p70 S6K-T2 and T412Ep70S6K-T2 mutant were amine coupled to a CM5 sensor chip (BIAcore AB) according to the manufacturer's instructions. The indicated concentrations of His-PDK1 was injected over the chip at a flow rate of 30 μl/min and the steady-state binding determined, in the presence or absence of PIF peptide. The apparent equilibrium dissociation constant (Kd) for the binding of His-PDK1 to p70 S6 kinase was determined by fitting the increase in steady-state binding upon increased PDK1 concentration to a rectangular hyperbola using SigmaPlot 4 (SPSS Inc). […]

Where a SMILES comes first, the peptide text is derived from it.

Consider `CC[C@H](C)[C@H](NC(=O)[C@H](Cc1ccc(O)cc1)NC(=O)[C@H](CC(=O)O)NC(=O)[C@H](Cc1ccccc1)NC(=O)[C@H](CC(=O)O)NC(=O)[C@H](CCCNC(=N)N)NC(=O)[C@H](Cc1ccccc1)NC(=O)[C@H](CCSC)NC(=O)[C@H](CCC(=O)O)NC(=O)[C@H](CCC(N)=O)NC(=O)[C@H](CCC(=O)O)NC(=O)[C@H](CCC(=O)O)NC(=O)[C@H](CCC(=O)O)NC(=O)[C@H](CO)NC(=O)[C@H](CC(C)C)NC(=O)[C@@H](NC(=O)[C@H](CCCNC(=N)N)NC(=O)[C@@H]1CCCN1C(=O)[C@H](CCC(=O)O)NC(=O)[C@@H](N)CCCNC(=N)N)[C@@H](C)CC)C(=O)N[C@@H](C)C(=O)N[C@@H](CC(=O)O)C(=O)N[C@@H](Cc1c[nH]c2ccccc12)C(=O)N[C@@H](CS)C(=O)O` [PIFtide] (H-REPRILSEEEQEMFRDFDYIADWC-OH; N-terminus and C-terminus assumed), for which the “increase of TM50” value at GST-PDK1 is 8-10 °C. At PDK1, the “effect on the interaction between PDK1 and 412E-p70 S6K-T2” value is on record as “abolished”.
